Source: patent publication US20180153872A1, “HETEROARYL CARBONITRILES FOR THE TREATMENT OF DISEASE” (OPKO Health, Inc., priority 2015, published 2018)
Values joined by “and” are separate entries in the source; they are usually repeats but may differ in a detail not shown here. Equal values may be shown once. Read-outs that look alike come from different tables or passages of the source.

Assays:
[1] = Metabolic pathways in the mammals tested; format: in vivo
Source text: (§1) Urinary excretion was also substantial (approximately 20%).

[2] = Rising single-dose safety, tolerability and pharmacokinetics study in healthy human volunteers; format: in vivo
Method: A randomized, placebo-controlled, third party blind (within dose level), rising, single-dose escalation study to evaluate the safety, tolerability and pharmacokinetics of SCH900978 in healthy human volunteers was conducted and completed. […] Six subjects received placebo. […] Food had no effect on the oral bioavailability of SCH900978. […] Tmax occurred within 0-4 hours at each dosage strength. Table 2 below provides the mean SCH900978 pharmacokinetic parameters following administration of a single oral dose of 25 mgs of SCH900978 capsule or solution to healthy volunteers.
Table 3 below provides the mean SCH900978 pharmacokinetic parameters following administration of a single oral dose of 50 mgs of SCH900978 to healthy volunteers under fasted and fed conditions.

[3] = system: 106 other receptors, transporters, enzymes and ion channels; experiment: Panel of 106 other receptors, transporters, enzymes and ion channels; format: binding
Method: (§2) SCH900978 was also tested for NK2 and NK3 receptor activity and in 106 other receptors, transporters, enzymes and ion channels and had greater than 1000 fold lower affinity for these than for the NK1 receptor.

in vivo = experiment: in vivo
Method: A series of in vitro and in vivo studies examined the effects of SCH900978 on cardiovascular, respiratory and CNS functions. No adverse effects were observed. The NOAEL was ≥25 mg/kg in male rats, ≥12.5 mg/kg in female rats and ≥10 mg/kg in male cynomolgus monkeys; each dose was the highest dose tested.

[4] = Brain penetration, guinea pigs; format: in vivo, guinea pig
Method: as §1
(§3) The extent of brain penetration by SCH 900978 was evaluated after oral administration of SCH 900978 amorphous hydrochloride to female gerbils (0.1 mg/kg), male Sprague Dawley rats (5 mg/kg), and male guinea pigs (0.3 mg/kg).

[5] = Pharmacokinetics/toxicokinetics and excretion in rats; format: in vivo, rat; conditions: for plasma concentration-time profile: single oral dose
Source text: as §1

NK1 receptor [6] = biological target: NK1 receptor (Meriones unguiculatus, UniProt Q5DUB1); experiment: NK1 receptor radioligand binding, gerbil; conditions: no unit, Ki in nM
Method: as §2

NK1 receptor [7] = biological target: NK1 receptor (Homo sapiens, UniProt P25103); experiment: Block of GR-73632-mediated calcium efflux in cells expressing the human NK1 receptor (Schild analysis); format: cell-based; conditions: GR-73632-stimulated calcium efflux, read-out: Kb, equilibrium dissociation constant determined by Schild analysis
Source text: (§4) A compound of formula I (also designated SCH 900978) is a potent, selective, competitive neurokinin-1 (NK-1) receptor antagonist that is effective as an oral administered drug for the treatment of cough and meets this unmet medical need. In addition, this drug is effective for the treatment of overactive bladder (OAB) and other selected indications including major depression and alcohol dependency. […] The present invention comprises a compound of formula I having an effective dose for 90% inhibition [ED90]=0.2 mg/kg as determined in an in vivo pharmacodynamic model of NK1 receptor activity (gerbil foot thumping).
as §2

capsaicin-induced cough = experiment: Capsaicin-induced cough in conscious guinea pigs; format: in vivo; conditions: guinea pig
Method: Inhalation of the irritant capsaicin induces coughing in both animals and humans, in part by releasing substance P from unmyelinated sensory C fibers in the lung. When administered orally to conscious guinea pigs six hours prior to inhalation of aerosolized capsaicin, SCH900978 attenuated capsaicin-induced cough in a dose-dependent manner (ED90=0.04 mg/kg) (FIG. 2).

Brain penetration, rats = format: in vivo, rat
Method: as §1, §3

[8] = Plasma concentration after oral dose in dogs; format: in vivo; conditions: dog, 0.3 mg/kg oral
Method: The antitussive activity of SCH 900978 was also evaluated against cough induced by mechanical stimulation of the intrathoracic trachea in anesthetized dogs. Cough was measured in each stimulation trial by the cough frequency (number of coughs) and cough amplitude (cm H2O increase in expiratory pressure). […] Plasma concentration of SCH900978 at 2, 6 and 25 hours after administration of the 0.3 mg/kg dose to dogs were 201, 151 and 102 ng/mL (373, 280 and 189 nM), respectively.

NK2 receptor = biological target: T1, NK2 receptor (Homo sapiens, UniProt P21452); experiment: NK2 receptor affinity; format: binding
T1 sequence (P21452 1-398): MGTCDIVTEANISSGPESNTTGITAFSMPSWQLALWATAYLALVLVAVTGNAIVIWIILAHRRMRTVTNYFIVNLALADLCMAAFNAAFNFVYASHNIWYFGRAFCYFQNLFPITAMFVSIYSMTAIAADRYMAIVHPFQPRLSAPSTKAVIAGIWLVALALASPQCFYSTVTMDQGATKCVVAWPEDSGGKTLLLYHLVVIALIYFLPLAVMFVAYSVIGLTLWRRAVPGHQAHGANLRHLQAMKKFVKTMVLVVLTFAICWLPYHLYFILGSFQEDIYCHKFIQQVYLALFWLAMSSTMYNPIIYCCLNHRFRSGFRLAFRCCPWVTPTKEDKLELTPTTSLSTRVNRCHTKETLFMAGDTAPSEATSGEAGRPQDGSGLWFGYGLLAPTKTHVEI
Source text: as §4, §2

[9] = 25 mg solution, single oral dose, n = 5
[10] = 50 mg fasted, single oral dose, n = 6
[11] = 50 mg fed, single oral dose, n = 6

Sequence of NK1 receptor (Homo sapiens, UniProt P25103) (P25103 whole entry): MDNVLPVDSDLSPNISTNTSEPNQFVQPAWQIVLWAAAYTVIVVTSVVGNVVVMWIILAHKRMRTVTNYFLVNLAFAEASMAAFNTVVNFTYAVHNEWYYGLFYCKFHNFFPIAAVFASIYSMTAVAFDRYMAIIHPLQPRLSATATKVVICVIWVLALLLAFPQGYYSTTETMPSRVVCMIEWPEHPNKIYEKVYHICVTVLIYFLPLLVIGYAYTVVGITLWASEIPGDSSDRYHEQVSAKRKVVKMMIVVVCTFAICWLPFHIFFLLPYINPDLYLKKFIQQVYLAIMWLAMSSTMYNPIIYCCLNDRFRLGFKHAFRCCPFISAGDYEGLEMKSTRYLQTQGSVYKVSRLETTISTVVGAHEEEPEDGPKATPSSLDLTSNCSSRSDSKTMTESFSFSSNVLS
Sequence of NK1 receptor (Meriones unguiculatus, UniProt Q5DUB1) (Q5DUB1 whole entry): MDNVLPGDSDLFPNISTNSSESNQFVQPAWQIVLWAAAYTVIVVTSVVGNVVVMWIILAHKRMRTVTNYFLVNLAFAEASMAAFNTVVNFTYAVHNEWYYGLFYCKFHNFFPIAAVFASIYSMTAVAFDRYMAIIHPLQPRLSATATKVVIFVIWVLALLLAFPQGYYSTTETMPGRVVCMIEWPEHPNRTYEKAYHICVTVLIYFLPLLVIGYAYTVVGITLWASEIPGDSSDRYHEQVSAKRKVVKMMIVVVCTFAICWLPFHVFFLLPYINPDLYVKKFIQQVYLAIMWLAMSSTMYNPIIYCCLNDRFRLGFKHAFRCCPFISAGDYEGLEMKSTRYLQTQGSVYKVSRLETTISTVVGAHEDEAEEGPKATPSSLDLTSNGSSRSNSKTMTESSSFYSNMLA

C[C@@H](OC[C@@]1(c2ccccc2)CC[C@](C#N)(n2cn[nH]c2=O)CN1)c1cc(C(F)(F)F)cc(C(F)(F)F)c1 [Compound 42, (3 S,6S)-6-({(1R)-1-[3,5-bis(trifluoromethyl)phenyl]ethoxy}methyl)-3-(5-oxo-1,5dihydro-4H-1,2,4-triazol-4-yl)-6-phenylpiperidine-3-carbonitrile]
major metabolic pathways [1]: oxidation and glucuronidation | Tf Mean/% CV ([2]; 25 mg capsule, single oral dose, n = 5): 312^b/0^ hr | Cmax Mean/% CV ([2]; 25 mg capsule, single oral dose, n = 6): 213/27 | AUC(tf) Mean/% CV [2, 9]: 29900/22 | Tf Mean/% CV [2, 9]: 312/0 | Cmax Mean/% CV ([2]; 25 mg solution, single oral dose, n = 5, adjusted for carryover): 301/21 | AUC(l) Mean/% CV [2, 10]: 88700/23 | AUC(tf) Mean/% CV [2, 10]: 59700/24 | Cmax Mean/% CV [2, 10]: 388/32 | T1/2 Mean/% CV [2, 10]: 309/32 | Tf Mean/% CV [2, 10]: 504/0 | AUC(tf) Mean/% CV [2, 11]: 69000/19 | Tf Mean/% CV [2, 11]: 504/0 | Cmax Mean/% CV ([2]; 50 mg fed, single oral dose, n = 6, adjusted for carryover): 366/23 | bioavailability, solution versus capsule oral formulations ([2]; healthy volunteers): comparable | effect of food on oral bioavailability ([2]; healthy volunteers): no effect | safety and tolerability ([2]; healthy volunteers, oral doses up to 50 mg): safe and well tolerated | absorption and elimination ([2]; healthy volunteers, single oral doses 10, 25, 50 mg): rapidly absorbed and slowly eliminated | AUC ([2]; human, plasma, oral, 10 mg to 200 mg dose, after a single dose, read-out: AUC plasma blood level): 19000 to 352000 ng·h/mL | half-life ([2]; human, plasma, oral, human, read-out: t1/2 (half-life)): 10 to 13 days | Cmax ([2]; human, plasma, oral, 10 mg to 200 mg dosage range, based on values from volunteers given 10, 25 and 50 mg, read-out: Cmax (either calculated or estimated)): 103 to 1480 ng/mL | Tmax ([2]; human, plasma, oral, each dosage strength 10, 25, 50 mg): 0 to 0.167 days | AUC ([2]; human, plasma, po, 25 mg, 25 mg capsule, single oral dose, n = 4, read-out: AUC(l) Mean/% CV): 42900 ng·h/mL | half-life ([2]; human, plasma, po, 25 mg, 25 mg capsule, single oral dose, n = 4, read-out: T1/2 Mean/% CV (converted)): 9.92 days | AUC ([2]; human, plasma, po, 25 mg, 25 mg capsule, single oral dose, n = 5, read-out: AUC(tf) Mean/% CV): 25700 ng·h/mL | AUC ([2]; human, plasma, po, 25 mg, 25 mg solution, single oral dose, n = 4, read-out: AUC(l) Mean/% CV): 52600 ng·h/mL | half-life ([2]; human, plasma, po, 25 mg, 25 mg solution, single oral dose, n = 4, read-out: T1/2 Mean/% CV (converted)): 10.5 days | AUC ([2]; human, plasma, po, 50 mg, 50 mg fed, single oral dose, n = 4, read-out: AUC(l) Mean/% CV): 97000 ng·h/mL | half-life ([2]; human, plasma, po, 50 mg, 50 mg fed, single oral dose, n = 4, read-out: T1/2 Mean/% CV (converted)): 13.2 days | exposure (Cmax and AUC) versus dose ([2]; single oral doses 10, 25, 50 mg): dose related | affinity for a battery of other receptors, transporters, enzymes or ion channels [3]: does not have significant affinity | fold lower affinity than for the NK1 receptor ([3]; 106 other receptors, transporters, enzymes and ion channels vs NK1): greater than 1000 fold | NOAEL (in vivo; female, rat): ≥ 12.5 mg/kg | NOAEL (in vivo; male, cynomolgus monkey): ≥ 10 mg/kg | NOAEL (in vivo; male, rat): ≥ 25 mg/kg | crossing of the blood brain barrier [4]: readily crossed the blood brain barrier | systemic exposure after repeated administration ([5]; female and male rats, doses >=25 mg/kg, most likely CYP enzyme induction): decreased following repeated administration | plasma concentrations over 24 hours after 29th dose versus first dose ([5]; female rats 0.5 to 12.5 mg/kg, male rats 1 to 5 mg/kg): greater | systemic exposure (AUC) versus dose, single dose ([5]; male rats 0.6 to 500 mg/kg, female rats 0.5 to 250 mg/kg, no further increase at the highest doses): increased with increasing dose | exposure, effect of sex ([5]; rats): higher in female rats than in male rats | exposure versus dose ([5]; rats, once daily oral doses for one month): generally increased as the dose increased | major elimination pathway ([5]; rats, oral administration): excretion into the feces | plasma concentration-time profile ([5]; rats, listed as SCH 900978): extended absorption of SCH900978 with a long t1/2 | plasma concentration-time profile ([5]; rats, listed as SCH900978): extended absorption of the drug and a long apparent terminal elimination phase half-life | Ki (NK1 receptor [6]): 0.2 nM | Kb (NK1 receptor [7]): 0.17 nM | maximal inhibition of capsaicin-induced cough (capsaicin-induced cough): comparable to that produced by the standard antitussive agents | ED90, capsaicin-induced cough (capsaicin-induced cough; oral, six hours prior to aerosolized capsaicin): 0.04 mg/kg | crossing of the blood brain barrier (Brain penetration, rats): readily crossed the blood brain barrier | concentration at 2 h ([8]; 2 hours): 201 ng/mL and 373 nM | concentration at 6 h ([8]; 6 hours): 151 ng/mL and 280 nM | concentration at 25 h ([8]; 25 hours): 102 ng/mL and 189 nM | Ki (NK2 receptor): > 1000 nM | fold lower affinity than for the NK1 receptor (NK2 receptor; NK2 vs NK1): greater than 1000 fold
